Measured values as given in US11149031B2, “Substituted N-(3-fluoropropyl)-pyrrolidine compounds, processes for their preparation and therapeutic uses thereof” (SANOFI, priority 2016, dated 2021).
Where two headings read alike, the source gives them in different places.

Tests used:
[1] = biological target: His6-ERα298-554 WT (ERα ligand-binding domain) (Homo sapiens (Human), UniProt P03372); test: Test A: biochemical antagonist activity, LanthaScreen TR-FRET ERα coactivator assay, WT; details: read-out: Antagonism WT IC50
Sequence of His6-ERα298-554 WT (ERα ligand-binding domain) (P03372 298-554): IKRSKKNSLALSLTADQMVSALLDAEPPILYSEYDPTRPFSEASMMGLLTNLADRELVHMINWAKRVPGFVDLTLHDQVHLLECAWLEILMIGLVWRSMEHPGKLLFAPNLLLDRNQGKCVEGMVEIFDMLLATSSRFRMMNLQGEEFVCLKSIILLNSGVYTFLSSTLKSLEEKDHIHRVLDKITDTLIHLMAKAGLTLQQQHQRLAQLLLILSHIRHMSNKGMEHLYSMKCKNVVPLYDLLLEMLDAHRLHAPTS
In short: (§1)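 Compounds were added to receptor LBD (0.5 nM), terbium-labelled His6 antibody (0.5 nM), PGC1a coactivator peptide (250 nM) and estradiol at 3 nM or 10 nM. After incubating overnight at room temperature, the 520:495 nm ratio gave IC50 values by four-parameter logistic regression.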

[2] = biological target: His6-ERα298-554 Y537S mutant (ERα ligand-binding domain) (Homo sapiens (Human), UniProt P03372, Y537S); test: Test A: biochemical antagonist activity, LanthaScreen TR-FRET ERα coactivator assay, Y537S mutant; details: read-out: Antagonism Y537S IC50
Sequence of His6-ERα298-554 Y537S mutant (ERα ligand-binding domain) (P03372 298-554 Y537S): as the sequence (P03372 298-554) above, with Y240S counted along it
In short: as §1

ERα in MCF7 cells = ERα in MCF7 cells (Homo sapiens (Human), UniProt P03372); test: Test C: estrogen receptor degradation activity, ERα in cell western assay in MCF7 cells; format: cell-based; details: for DC50: 4 hours post compound addition, ERα in cell western, read-out: Degradation IC50; for % Degradation at 3 μM: 4 hours, relative to fulvestrant
Sequence of ERα in MCF7 cells (P03372 whole entry): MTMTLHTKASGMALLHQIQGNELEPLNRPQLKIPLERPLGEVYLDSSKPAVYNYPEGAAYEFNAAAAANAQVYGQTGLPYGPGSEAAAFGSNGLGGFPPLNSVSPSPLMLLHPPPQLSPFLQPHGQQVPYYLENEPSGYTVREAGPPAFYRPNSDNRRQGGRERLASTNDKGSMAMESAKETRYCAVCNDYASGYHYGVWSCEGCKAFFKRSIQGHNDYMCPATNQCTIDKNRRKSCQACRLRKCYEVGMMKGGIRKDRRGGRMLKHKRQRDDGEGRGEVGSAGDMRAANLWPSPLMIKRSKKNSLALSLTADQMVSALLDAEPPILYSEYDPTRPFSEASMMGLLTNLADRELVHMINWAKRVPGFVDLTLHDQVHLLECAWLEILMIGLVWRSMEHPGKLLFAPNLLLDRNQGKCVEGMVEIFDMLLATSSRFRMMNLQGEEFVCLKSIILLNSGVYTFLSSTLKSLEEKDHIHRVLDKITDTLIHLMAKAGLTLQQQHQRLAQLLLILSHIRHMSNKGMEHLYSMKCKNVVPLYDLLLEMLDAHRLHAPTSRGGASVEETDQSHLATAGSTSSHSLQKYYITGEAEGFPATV
In short: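 In-cell western, MCF7, 4 h compound exposure, 3–0.000018 μM final, 9 points, 1:5 steps. Formalin/Triton fix, anti-ER rabbit mAb overnight cold, Alexa 488 secondary plus 2 μM Syto-64. Green intensity = ERα, red = DNA; no-primary wells as background.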

[3] = biological target: His6-ERα298-554 D538G mutant (ERα ligand-binding domain) (Homo sapiens (Human), UniProt P03372, D538G); test: Test A: biochemical antagonist activity, LanthaScreen TR-FRET ERα coactivator assay, D538G mutant; details: read-out: Antagonism D538G IC50
Sequence of His6-ERα298-554 D538G mutant (ERα ligand-binding domain) (P03372 298-554 D538G): as the sequence (P03372 298-554) above, with D241G counted along it
In short: as §1

[4] = test system: MCF7 cells expressing mutant estrogen receptor Asp 538 Gly; test: Test B: cell proliferation/viability assay (CellTiter-Glo) on MCF7 Asp 538 Gly mutant; format: cell-based; details: Homo sapiens, MCF7, 168 h, MCF7 cells expressing ER Asp 538 Gly mutant, 7 days of compound exposure, read-out: proliferation MCF7 D538G IC50
In short: (§2)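 CellTiter-Glo luminescence after 7-day exposure; % viability = background-corrected RLU of sample relative to untreated. MCF7 WT or ER Tyr 537 Ser/Asp 538 Gly mutant-dependent lines, phenol red-free MEM, 5% charcoal-stripped FBS; 3-0.000001 μM, 9 points.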

[5] = test system: MCF7 cells expressing mutant estrogen receptor Tyr 537 Ser; test: Test B: cell proliferation/viability assay (CellTiter-Glo) on MCF7 Tyr 537 Ser mutant; format: cell-based; details: Homo sapiens, MCF7, 168 h, MCF7 cells expressing ER Tyr 537 Ser mutant, 7 days of compound exposure, read-out: proliferation MCF7 Y537S IC50
In short: as §2

[6] = test system: MCF7 cells (breast tumor cells) WT; test: Test B: cell proliferation/viability assay (CellTiter-Glo) on MCF7 WT; format: cell-based; details: Homo sapiens, MCF7, 168 h, 7 days of compound exposure
In short: as §2

[7] = asterisk (*): protocol using 10 nM estradiol

| SMILES | IC50 ([1]; protocol with 3 nM estradiol) [µM] | IC50 ([2]; protocol with 3 nM estradiol) [µM] | DC50 (ERα in MCF7 cells) [µM] | % Degradation at 3 μM (ERα in MCF7 cells) [%] | IC50 ([3]; protocol with 3 nM estradiol) [µM] | IC50 [4] [µM] | IC50 [5] [µM] | IC50 [6] [µM] | IC50 [1, 7] [µM] | IC50 [2, 7] [µM] | IC50 [3, 7] [µM] |
| --- | --- | --- | --- | --- | --- | --- | --- | --- | --- | --- | --- |
| Oc1cc2c(cc1F)C(c1ccc(O[C@H]3CCN(CCCF)C3)cc1)=C(c1ccc3c(c1)CCN3)CCO2 [Example 142, 7-fluoro-5-[4-[(3S)-1-(3-fluoropropyl)pyrrolidin-3-yl]oxyphenyl]-4-indolin-5-yl-2,3-dihydro-1-benzoxepin-8-ol] | 0.041 | 1.15 | 0.002 | 83 | 1.82 | 0.034 | 0.154 | 0.008 |  |  |  |
| Oc1cc2c(cc1Cl)C(c1ccc(O[C@H]3CCN(CCCF)C3)cc1)=C(c1ccc3c(c1)CCN3)CCO2 [Example 143, 7-chloro-5-[4-[(3S)-1-(3-fluoropropyl)pyrrolidin-3-yl]oxyphenyl]-4-indolin-5-yl-2,3-dihydro-1-benzoxepin-8-ol] | 0.464 | 4 | 0.014 | 74 | 4 | 0.063 | 0.357 | 0.024 |  |  |  |
| Oc1cc2c(cc1Cl)C(c1ccc(O[C@H]3CCN(CCCF)C3)cc1)=C(c1ccc3[nH]ccc3c1)CCO2 [Example 144, 7-chloro-5-[4-[(3S)-1-(3-fluoropropyl)pyrrolidin-3-yl]oxyphenyl]-4-(1H-indol-5-yl)-2,3-dihydro-1-benzoxepin-8-ol] | 0.528 | 4 | 0.018 | 75 | 4 | 0.064 | 0.653 | 0.038 |  |  |  |
| Cc1ccc(C2=C(c3ccc(O[C@H]4CCN(CCCF)C4)cc3)c3cc(Cl)c(O)cc3OCC2)c(F)c1 [Example 145, 7-chloro-4-(2-fluoro-4-methyl-phenyl)-5-[4-[(3S)-1-(3-fluoropropyl)pyrrolidin-3-yl]oxyphenyl]-2,3-dihydro-1-benzoxepin-8-ol] | 0.256 | 3.27 | 0.0005 | 82 | 4 | 0.017 | 0.124 | 0.009 |  |  |  |
| COCCOc1ccc(C2=C(c3ccc(O[C@H]4CCN(CCCF)C4)cc3)c3ccc(O)cc3OCC2)cc1 [Example 146, 5-[4-[(3S)-1-(3-fluoropropyl)pyrrolidin-3-yl]oxyphenyl]-4-[4-(2-methoxyethoxy)phenyl]-2,3-dihydro-1-benzoxepin-8-ol] |  |  | 0.002 | 86 |  | 0.012 | 0.069 | 0.006 | 0.051 | 0.845 | 1.17 |
| Oc1ccc2c(c1)OCCC(c1ccc(OCCN3CCCC3)cc1)=C2c1ccc(O[C@H]2CCN(CCCF)C2)cc1 [Example 147, 5-[4-[(3S)-1-(3-fluoropropyl)pyrrolidin-3-yl]oxyphenyl]-4-[4-(2-pyrrolidin-1-ylethoxy)phenyl]-2,3-dihydro-1-benzoxepin-8-ol] |  |  | 0.049 | 77 |  | 0.09 | > 0.999 | 0.052 | 0.39 | 3.81 | > 4 |
| COc1c(C(=O)O)cccc1C1=C(c2ccc(O[C@H]3CCN(CCCF)C3)cc2)c2ccc(O)cc2OCC1 [Example 148, 3-[5-[4-[(3S)-1-(3-fluoropropyl)pyrrolidin-3-yl]oxyphenyl]-8-hydroxy-2,3-dihydro-1-benzoxepin-4-yl]-2-methoxy-benzoic acid] |  |  | 0.448 | 77 |  | 0.314 | > 0.999 | 0.222 | > 4 | > 4 | > 4 |
| Oc1ccc2c(c1)OCCC(c1ccc(OC3CC3)cc1)=C2c1ccc(O[C@H]2CCN(CCCF)C2)cc1 [Example 149, 4-[4-(cyclopropoxy)phenyl]-5-[4-[(3S)-1-(3-fluoropropyl)pyrrolidin-3-yl]oxyphenyl]-2,3-dihydro-1-benzoxepin-8-ol] |  |  | 0.0009 | 91 |  | 0.002 | 0.012 | 0.0005 | 0.023 | 0.289 | 0.303 |
| Oc1ccc2c(c1)OCCC(c1ccc3c(c1)CCO3)=C2c1ccc(O[C@H]2CCN(CCCF)C2)cc1 [Example 151, 4-(2,3-dihydrobenzofuran-5-yl)-5-[4-[(3S)-1-(3-fluoropropyl)pyrrolidin-3-yl]oxyphenyl]-2,3-dihydro-1-benzoxepin-8-ol] |  |  | 0.0004 | 90 |  | 0.001 | 0.007 | 0.0003 | 0.006 | 0.068 | 0.088 |
| CCOc1ccc(C2=C(c3ccc(O[C@H]4CCN(CCCF)C4)cc3)c3ccc(O)cc3OCC2)c(F)c1 [Example 152, 4-(4-ethoxy-2-fluoro-phenyl)-5-[4-[(3S)-1-(3-fluoropropyl)pyrrolidin-3-yl]oxyphenyl]-2,3-dihydro-1-benzoxepin-8-ol] |  |  | 0.0002 | 92 |  | 0.003 | 0.004 | 0.0005 | 0.009 | 0.107 | 0.154 |
| CCOc1ccc(C2=C(c3ccc(O[C@H]4CCN(CCCF)C4)cc3)c3ccc(O)cc3OCC2)c(Cl)c1 [Example 153, 4-(2-chloro-4-ethoxy-phenyl)-5-[4-[(3S)-1-(3-fluoropropyl)pyrrolidin-3-yl]oxyphenyl]-2,3-dihydro-1-benzoxepin-8-ol] |  |  | 0.0002 | 91 |  | 0.0007 | 0.003 | 0.0003 | 0.006 | 0.086 | 0.117 |
| COc1ccc(C2=C(c3ccc(O[C@H]4CCN(CCCF)C4)cc3)c3ccc(O)cc3OCC2)c(Cl)c1 [Example 154, 4-(2-chloro-4-methoxy-phenyl)-5-[4-[(3S)-1-(3-fluoropropyl)pyrrolidin-3-yl]oxyphenyl]-2,3-dihydro-1-benzoxepin-8-ol] |  |  | 0.0002 | 92 |  | 0.0006 | 0.004 | 0.0002 | 0.005 | 0.051 | 0.077 |
| CCOc1ccc(C2=C(c3ccc(O[C@H]4CCN(CCCF)C4)cc3)c3cc(F)c(O)cc3OCC2)c(C)c1 [Example 155, 4-(4-ethoxy-2-methyl-phenyl)-7-fluoro-5-[4-[(3S)-1-(3-fluoropropyl)pyrrolidin-3-yl]oxyphenyl]-2,3-dihydro-1-benzoxepin-8-ol] |  |  | 0.0002 | 81 |  | 0.001 | 0.006 | 0.0004 | 0.021 | 0.228 | 0.365 |
| Oc1cc2c(cc1F)C(c1ccc(O[C@H]3CCN(CCCF)C3)cc1)=C(c1ccc3occc3c1)CCO2 [Example 156, 4-(benzofuran-5-yl)-7-fluoro-5-[4-[(3S)-1-(3-fluoropropyl)pyrrolidin-3-yl]oxyphenyl]-2,3-dihydro-1-benzoxepin-8-ol] |  |  | 0.0004 | 85 |  | 0.002 | 0.014 | 0.0006 | 0.019 | 0.254 | 0.409 |
| COc1ccc(C2=C(c3ccc(O[C@H]4CCN(CCCF)C4)cc3)c3ccc(O)cc3OCC2)c(C)c1 [Example 157, 5-[4-[(3S)-1-(3-fluoropropyl)pyrrolidin-3-yl]oxyphenyl]-4-(4-methoxy-2-methyl-phenyl)-2,3-dihydro-1-benzoxepin-8-ol] |  |  | 0.0002 | 90 |  | 0.0006 | 0.004 | 0.0002 | 0.002 | 0.036 | 0.056 |
| Cc1cc(C2=C(c3ccc(O[C@H]4CCN(CCCF)C4)cc3)c3ccc(O)cc3SCC2)ccc1Cl [Example 162, 4-(4-chloro-3-methyl-phenyl)-5-[4-[(3S)-1-(3-fluoropropyl)pyrrolidin-3-yl]oxyphenyl]-2,3-dihydro-1-benzothiepin-8-ol] | 0.004 | 0.019 | 0.0008 | 90 | 0.024 | 0.001 | 0.005 | 0.0004 |  |  |  |
